Experimental data as given in a melting point compilation (Tetko et al.; mined from patent text by program, amines drawn as free bases though some values may be those of a salt).

SMILES	melting point
CN(CCN(C)c1ccc([N+](=O)[O-])cc1)c1ccncc1	126 to 127 °C
Cc1nc(CC(=O)O)no1	101 to 103 °C
Cc1nn(-c2ccccn2)c2[nH]c3ccc(S(C)(=O)=O)cc3c(=O)c12	> 300 °C
Cc1nc(N)ccc1Cl	74 to 75 °C
CCN(CC)Cc1nc2cc(OC)c(OC)cc2c(-c2ccc(OC)c(OC)c2)c1Cl	146 to 148 °C
COc1c(C)cccc1C(=O)O	70 to 75 °C
Cc1ccnc(Cn2ccnc2)c1O	170 to 172 °C
O=c1c(-c2ccccc2)c(Cn2ccnc2)oc2ccccc12	168 to 171 °C
O=C(Cc1ccc(Cl)cc1)Nc1cc(CC2SC(=O)NC2=O)ccc1O (stereo not drawn)	207 to 209 °C
COc1ccccc1N(CCN1CCC(C(=O)c2ccc(F)cc2)CC1)S(=O)(=O)C1=CCC(=NO)C=C1	162 to 168 °C
C=C1C2=C(CCCC2)C(=O)N1c1ccc(Cl)cc1F	84 to 85.5 °C
CC(C)NCC(O)COc1ccc(C2=NNC(=O)CC2)c2ccccc12 (stereo not drawn)	131 to 135 °C
COCCCc1nc(C(F)F)ccc1C(=O)C1C(=O)C2CCC(C2)C1=O (stereo not drawn)	45 to 46 °C
C#CCN(Cc1ccc2nc(NC(=O)C(C)(C)C)[nH]c(=O)c2c1)c1ccc(S(=O)(=O)N(C)C)cc1	217 to 220 °C
CCn1c2ccccc2c2cc(NC(=S)NNC(C)=O)ccc21	197 to 199 °C
CNC(=C[N+](=O)[O-])NCCSCc1cc(OC)ccn1	107 to 108 °C
Cc1cc(N2CCN(CC3CC3)C2=O)sc1C(=O)NCc1cccnc1	157 to 159 °C
COc1ccc(C2CC(=O)c3c(C)coc3C2)cc1 (stereo not drawn)	82 to 83 °C
CSCCNC(N)=Nc1ccccc1N1CCOCC1	115 to 116 °C
COc1ccc(-c2nc(S(=O)(=O)c3nccs3)[nH]c2-c2ccc(OC)cc2)cc1	219 °C
COC(=O)C(CO)NC(=O)c1cc2cc(Cl)ccc2[nH]1 (stereo not drawn)	153 to 155 °C
COC(=O)Cc1cccc(NC(=O)NCC(=O)O)c1	136 °C
CCP(=O)(OC)C(O)C(CC1CCCCC1)NC(=O)[C@H](CC(C)C)NC(=O)CCc1ccccc1 (stereo partly drawn)	170 to 175 °C
CS(=O)(=O)Nc1ccc(C(O)CNC2CCN(c3ccc(CC4SC(=O)NC4=O)cc3)CC2)cn1 (stereo not drawn)	57 to 59 °C
CCc1c(C(=O)C(N)=O)c2c(OCC(=O)OC)cc3c(c2n1Cc1ccccc1)CCCC3	51 to 53 °C

SMILES	melting point
Nc1nc(N)c2ncn(C3OC(COCc4ccccc4)C(OCc4ccccc4)C3OCc3ccccc3)c2n1 (stereo not drawn)	158 to 159 °C
Cc1oc(-c2ccc(C(F)(F)F)cc2)nc1CO	98 to 99 °C
CC1(C)Cc2cc3c(cc2O1)OCC31C(=O)N(CC(=O)Nc2ccccc2F)c2cccc(-c3cncnc3)c21 (stereo not drawn)	> 250 °C
COC(=O)C[C@H](O)CC(=O)C=Cc1c(-c2ccc(F)cc2)c(-c2ccc(F)cc2)c(C(=O)NCc2cccc(OC)c2)n1C(C)C	104 to 116 °C
CCOC(=O)c1cn(C2COC2)c2c(C)c(F)c(F)cc2c1=O	157 to 165 °C
CN(Cc1nnc2n1-c1ccc(Cl)cc1C(c1ccccc1)=NC2)CC1CC1	171 to 176 °C
COc1ccc(-n2cnc3ccc(-c4nnc(SCc5cccc(C#N)c5)o4)cc32)cc1	157 to 158 °C
Cc1cc2c(cc1-n1c(C)ccc1C)OC(=O)C2C (stereo not drawn)	94 to 95 °C
Cc1ccc(-c2nc(CCCCCCOC(C)(C)c3nnn[nH]3)c(C)o2)cc1	87 °C
O=[N+]([O-])c1ccccc1N1CCN(c2ccccc2)CCN1	119 to 121 °C
CCC=Cc1nc2ccccc2n1Cc1ccc(C(=O)O)cc1	210 °C
CC1(CNc2ccccc2)SC2C(NC(=O)Cc3ccccc3)C(=O)N2C1C(=O)O (stereo not drawn)	120 °C
COC(=O)c1cn(Cc2ccc(OCc3nc(-c4ccccc4)oc3C)cc2)cc1-c1ccccc1	115 to 116 °C
CC(C)(C)OC(=O)Nc1ccc(C#Cc2ccccc2Cl)cc1[N+](=O)[O-]	152 to 155 °C
CCCCc1c(F)c(F)c(NN)c(F)c1F	80 to 81 °C
COc1sc(S(=O)(=O)C[N+](=O)[O-])cc1Br	120 to 121 °C
CCOc1cc(CC)ccc1C1CCN(CCCCNC(=O)c2sc(-c3ccc(C(F)(F)F)cc3)nc2CO)CC1	150 °C
CC(=O)NCC[C@@H]1CCc2ccc3nn(C)c(Br)c3c21	167 to 169 °C
CCOC(=O)C(C(=O)OCC)[C@H](C[N+](=O)[O-])c1ccccc1	45 to 47 °C
ONc1cccc(OCc2nc3ccccc3s2)c1	112 to 114 °C
CCSc1nc(Cl)nc2cccnc12	101 to 103 °C
CC(C(O)c1ccc2c(c1)CCCS2)N1CCN(C(=O)C=Cc2ccccc2Cl)CC1 (stereo not drawn)	206 to 209 °C
Cc1ccc(C=CC(=O)N2CCc3c([nH]c4ccccc34)C2c2ccc3c(c2)OCO3)cc1 (stereo not drawn)	240 °C
COc1cc(Nc2c(C#N)cnc3cc(-c4cc5ccccc5o4)ccc23)c(Cl)cc1Cl	276 to 277 °C
Cc1nc(-c2ccc(C(=N)NO)cc2)sc1C(=O)N[C@H](C)[C@](O)(Cn1cncn1)c1ccc(F)cc1F	135 to 148 °C

SMILES	melting point
COC(=O)COc1ccc2cc(CNC(=O)c3cc(-c4ccc(Cl)cc4)oc3C)ccc2c1	168 to 169 °C
CC1(C=C(F)F)CN(C(=O)Nc2ccc(OC(F)(F)F)cc2)N=C1c1ccc(Cl)cc1 (stereo not drawn)	142 to 148 °C
NC(=S)NCC(c1ccccc1)c1ccccc1	205 to 207 °C
CNc1cc2c(cc1OC)OCO2	66 °C
CN1CCC(=C2c3ccsc3C(O)Cn3ccnc32)CC1 (stereo not drawn)	230 °C
COc1nc(NC(=S)NS(=O)(=O)c2ccccc2)nc(OC)n1	148 to 150 °C
COC(=O)c1ccc(O)c(I)c1	145 to 146 °C
O=[N+]([O-])c1cnc2ccc(Cl)cc2c1Nc1ccccc1	174 to 175 °C
CC(C)n1nc(-c2sc(NC(=O)c3ccccc3F)nc2-c2ccccc2)ccc1=O	251 to 252 °C
CN1CC(C(C#N)(c2ccccc2)c2ccccc2)C1	113 to 115 °C
c1ccc(C2OC3(CCNCC3)N3CCCCC23)cc1 (stereo not drawn)	169 to 171 °C
Cc1nnc(-c2cccc(-c3cnc4[nH]cc(C(=O)C5(C)CCCCC5)c4n3)c2)o1	234 to 236 °C
Clc1cccc(CC[C@H]2CNCCN2)c1	93 to 97 °C
c1coc(CN2CC3(COc4cc5c(cc43)OCO5)c3ccccc32)c1 (stereo not drawn)	110 to 112 °C
CCCCOc1ccc(S(=O)(=O)C2(C(=O)O)CCN(Cc3cccc(OC)c3)CC2)cc1	175 °C
COc1ccc(C(=O)OC2C(O)C=C(C)C(=O)CC2(C)C)cc1OC (stereo not drawn)	150 to 152 °C
Cc1cccc(-c2oc3c(C(=O)NCCCN4CCCCC4)cccc3c(=O)c2C)c1	112 to 114 °C
O=[N+]([O-])c1cn(CC(I)=C(I)I)c(Cl)c1Cl	126 to 127 °C
O=C(O)Cc1nn(Cc2nc3cccc(Cl)c3s2)c(=O)c2ccccc12	168 °C
COC(=O)c1ccc(N=Cc2ccc(OC)c(C34CC5CC(CC(C5)C3)C4)c2)cc1	180 to 182 °C
NC(=O)Cc1ccc(OCC(O)CN2CCCC(Cn3c(=O)[nH]c4cc(Cl)c(Cl)cc43)C2)cc1 (stereo not drawn)	148 °C
CC(=O)Nc1ccccc1CSc1nc2ccccc2[nH]1	218 to 222 °C
CC(C)(C)C(NC(=O)c1ccc(Cl)cc1)NC(=C[N+](=O)[O-])Nc1cccnc1 (stereo not drawn)	195 to 196 °C
O=C(NCCC1CCCCC1)c1cc(-c2ncc(Cl)cc2C(=O)O)ccc1Cl	208 to 211 °C
O=C(O)CCCc1ccc(-c2ccccc2)cc1	118 to 119 °C

SMILES	melting point
FC(F)(F)c1ccc(Cn2cnc3c(-c4ccco4)ncnc32)cc1	159 to 161 °C
CS(=O)(=O)c1ccc(C(=O)c2cc(-c3cccnc3)c(N3CCOCC3)s2)cc1	147 °C
CC(=O)N1c2ccccc2-n2cc(Cc3cccnc3)c(=O)c3cccc1c32	143 to 144 °C
CC(=O)OCC1OC(n2nnnc2Cl)C(OC(C)=O)C(OC(C)=O)C1OC(C)=O (stereo not drawn)	172 °C
CC(C)C(C)C=CC(C)C1CCC2C3CC(=O)C4CC=CCC4(C)C3CCC12C (stereo not drawn)	118 to 120 °C
Cc1cc(C)c2c(c1O)C(=O)C(C)(Cc1ccccc1)C2 (stereo not drawn)	86 to 87 °C
COC(=O)[C@H](Cc1ccccc1)NC(=O)[C@H](Cc1ccccc1)NC(=O)c1cnccn1	111 to 113 °C
CCCCC(CNC(C)=O)(Cn1cncn1)c1ccccc1 (stereo not drawn)	112 to 115 °C
Cc1oc(-c2ccccc2)nc1COc1ccc(Cn2cc(C=O)c(-c3ccccc3)c2)cc1	117 to 118 °C
Cc1cc(C)c(P(C(C)(C)C)C(C)(C)C)c(C)c1	36 to 37 °C
CN(C)C(=O)c1nc(-c2ccncc2)nc2c1c1ccc(Cl)cc1n2C	268 to 269 °C
FC(F)(F)c1cccc(-c2nc(-c3ccccn3)no2)c1	116 to 118 °C
COc1ccc([N+](=O)[O-])c(C=C2C(=O)NC(=O)N2C)c1	257 to 260 °C
CC(C)(Oc1ccc(C(=O)NCc2ccc(Cl)cc2)cc1)C(=O)O	180 °C
O=C(Nc1cc2ccccc2cn1)c1nccnc1NCc1ccncc1	139 °C
CCc1ccc2cc(C3(Cn4ccnc4)OCCO3)ccc2c1	251 °C
CCc1ccc2c(c1)C=Cc1cc(C)ccc1C2c1cn(-c2ccnc(N(C)CC(=O)O)n2)c(=O)[nH]c1=S (stereo not drawn)	187 °C
O=C(O)Cc1cc(C(=O)c2ccccc2)cc(Br)c1O	132 °C
CS(=O)(=O)N1CCN([C@@H](CNC(=O)c2ccc(OCc3ccc(C(F)(F)F)cc3)cc2)C(=O)NO)CC1	192 °C
Cc1c(C)c([N+](=O)[O-])c(C)c2c1OC(C)(C)C2c1ccc(C(C)C)cc1 (stereo not drawn)	109 to 110 °C
CCOc1c([N+](=O)[O-])cnn1-c1c(Cl)cc(C(F)(F)F)cc1Cl	84 to 86 °C
CON=C(C)C(C)=NOc1ncccc1N(OC)C(=O)OC	86 to 88 °C
O=C(O)CCCS(=O)(=O)NC(=O)CCC(F)(F)C(F)(F)C(F)(F)C(F)(F)C(F)(F)C(F)(F)F	175 to 180 °C
